Data: PubChem BioAssay (NCI)
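Test compounds were applied to cells in 96-well plates for 48 hours at 5 doses. TGI denotes the concentration required for complete inhibition of growth.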

Legend:
Test in all cases: inhibition of tumour cell growth, NCI panel, 48 h
A549 NSCLC = system: A549 NSCLC
COLO 205 colon = system: COLO 205 colon
HCT-116 colon = system: HCT-116 colon
HCT-15 colon = system: HCT-15 colon
HS 578T breast = system: HS 578T breast
HT29 colon = system: HT29 colon
K-562 leukemia = system: K-562 leukemia
KM12 colon = system: KM12 colon
M14 melanoma = system: M14 melanoma
MALME-3M melanoma = system: MALME-3M melanoma
MCF7 breast = system: MCF7 breast
MDA-MB-231 breast = system: MDA-MB-231 breast
MDA-MB-435 = system: MDA-MB-435
NCI-H226 lung = system: NCI-H226 lung
NCI/ADR-RES ovarian = system: NCI/ADR-RES ovarian
OVCAR-5 ovarian = system: OVCAR-5 ovarian
OVCAR-8 ovarian = system: OVCAR-8 ovarian
SNB-78 CNS = system: SNB-78 CNS
TK-10 renal = system: TK-10 renal
UACC-257 melanoma = system: UACC-257 melanoma

SMILES | TGI (A549 NSCLC) | TGI (COLO 205 colon) | TGI (HCT-116 colon) | TGI (HCT-15 colon) | TGI (HS 578T breast) | TGI (HT29 colon) | TGI (K-562 leukemia) | TGI (KM12 colon) | TGI (M14 melanoma) | TGI (MALME-3M melanoma) | TGI (MCF7 breast) | TGI (MDA-MB-231 breast) | TGI (MDA-MB-435) | TGI (NCI-H226 lung) | TGI (NCI/ADR-RES ovarian) | TGI (OVCAR-5 ovarian) | TGI (OVCAR-8 ovarian) | TGI (SNB-78 CNS) | TGI (TK-10 renal) | TGI (UACC-257 melanoma)
Cc1nc2ccc(N=Nc3c(O)ccc4ccccc34)cc2[nH]1 | > 78.7 µM | > 66.6 µM | > 58.4 µM | > 63.5 µM | 61.9 µM | > 67.2 µM | > 100 µM | > 100 µM | > 81.5 µM | > 66.5 µM | 44.9 µM | 53.6 µM | 45.9 µM | > 100 µM | 60.2 µM | > 100 µM | 69.6 µM | > 100 µM | > 100 µM | > 63.5 µM
COC(=O)C(CCC1(C)OCCO1)C(C)=O (stereo unspecified) | > 100 µM | > 100 µM | > 100 µM | > 100 µM | – | > 100 µM | > 100 µM | > 100 µM | > 100 µM | > 100 µM | – | – | – | > 100 µM | – | > 100 µM | > 100 µM | > 100 µM | > 100 µM | > 100 µM
Cc1ccc(/C=C/C(=O)c2sc(C(N)=S)nc2C)cc1 | > 100 µM | > 100 µM | – | > 100 µM | – | > 100 µM | > 100 µM | > 100 µM | – | > 100 µM | – | – | – | > 100 µM | – | > 100 µM | > 100 µM | > 100 µM | > 100 µM | > 100 µM
COC(=O)C(C(=O)C(=O)Nc1c(Cl)cc([N+](=O)[O-])cc1Cl)c1nc2cc(C)c(C)cc2[nH]c1=O (stereo unspecified) | > 100 µM | > 100 µM | > 100 µM | > 100 µM | – | > 100 µM | > 100 µM | > 100 µM | > 100 µM | > 100 µM | – | – | – | > 100 µM | – | > 100 µM | > 100 µM | > 100 µM | > 100 µM | > 100 µM
COc1ccc(C2Cc3cc(OC)c(OC)c(OC)c3C2=O)cc1 (stereo unspecified) | > 100 µM | > 100 µM | > 100 µM | > 100 µM | – | > 100 µM | > 100 µM | > 100 µM | > 100 µM | > 100 µM | – | – | – | > 100 µM | – | > 100 µM | > 100 µM | > 100 µM | > 100 µM | > 100 µM
CCN(CC)CC(O)CNc1ccc(NCC(O)CCl)c2c1C(=O)c1ccccc1C2=O (stereo unspecified) | 24.4 µM | 21.6 µM | 14.5 µM | 19.9 µM | 31 µM | 16.5 µM | 6.45 µM | 17 µM | 9.38 µM | 28.3 µM | 15.3 µM | 27.8 µM | 18.6 µM | 25 µM | 17.3 µM | 29.2 µM | 20.6 µM | 22.8 µM | 25.5 µM | 16 µM
COc1ccc(NC(=O)CSc2nnc(Cc3ccccc3)o2)cc1 | > 100 µM | > 100 µM | > 100 µM | > 100 µM | – | > 100 µM | > 100 µM | > 100 µM | > 100 µM | > 100 µM | – | – | – | > 100 µM | – | > 100 µM | > 100 µM | > 100 µM | > 100 µM | > 100 µM
CC(=O)N(/N=C\c1ccc([N+](=O)[O-])cc1)c1ccccc1 | > 100 µM | > 100 µM | > 100 µM | > 100 µM | – | > 100 µM | > 100 µM | > 100 µM | > 100 µM | > 100 µM | – | – | – | > 100 µM | – | > 100 µM | > 100 µM | > 100 µM | > 100 µM | > 100 µM
O=S1(=O)COc2ccccc2-c2ncncc21 | > 100 µM | > 100 µM | > 100 µM | > 100 µM | – | > 100 µM | > 100 µM | > 100 µM | > 100 µM | > 100 µM | – | – | – | > 100 µM | – | > 100 µM | > 100 µM | > 100 µM | > 100 µM | > 100 µM
Cn1c(=O)c2c(ncn2CCCCn2ccnc2[N+](=O)[O-])n(C)c1=O | > 100 µM | > 100 µM | > 100 µM | > 100 µM | – | > 100 µM | > 100 µM | > 100 µM | > 100 µM | > 100 µM | – | – | – | > 100 µM | – | > 100 µM | > 100 µM | > 100 µM | > 100 µM | –
N#Cc1ccc(Nc2cnc3cc(N)ccc3n2)cc1 | > 100 µM | > 100 µM | > 100 µM | > 100 µM | – | > 100 µM | > 100 µM | > 100 µM | > 100 µM | > 100 µM | – | – | – | > 100 µM | – | > 100 µM | > 100 µM | > 100 µM | > 100 µM | > 100 µM
COC1=C(C)C(=O)C2C(C1=O)C(c1ccc(OC)c(OC)c1)[C@H]2C (stereo partly specified) | > 100 µM | > 100 µM | – | > 100 µM | – | > 100 µM | > 100 µM | > 100 µM | > 100 µM | > 100 µM | – | – | – | > 100 µM | – | > 100 µM | > 100 µM | > 100 µM | > 100 µM | –
CC(C)Cc1ccc(C(C)/C=C2\CCC(CN3CCOCC3)C2=O)cc1 (stereo unspecified) | 34.8 µM | 48.4 µM | 18.7 µM | 16.4 µM | > 100 µM | 16.7 µM | 12.4 µM | 16.9 µM | 15.9 µM | 32 µM | 19.9 µM | 4.2 µM | 20.2 µM | 35.5 µM | 29.3 µM | 35.9 µM | 12.3 µM | > 72.8 µM | 14.9 µM | 14.7 µM
CC(=O)O[C@@]12[C@@H]3O[C@@]4(O)C[C@]5(C)[C@H]6C[C@@](C(C)C)(O[C@H]5c5ccoc5)O[C@H]1[C@]6(C4)O[C@]2(O)C(C)=CC3(C)C | > 100 µM | > 100 µM | > 100 µM | > 100 µM | > 100 µM | > 100 µM | > 100 µM | > 100 µM | > 100 µM | > 100 µM | > 100 µM | > 100 µM | > 100 µM | > 100 µM | > 100 µM | > 100 µM | > 100 µM | – | > 100 µM | > 100 µM
NC(N)=NS(=O)(=O)c1ccc(Nc2c3ccccc3nc3ccc(C(=O)Nc4ccc(S(N)(=O)=O)cc4)cc23)cc1 | > 100 µM | > 100 µM | > 100 µM | > 100 µM | > 100 µM | > 100 µM | > 100 µM | > 100 µM | > 100 µM | > 100 µM | > 100 µM | > 100 µM | > 100 µM | > 100 µM | > 100 µM | > 100 µM | > 100 µM | – | > 100 µM | > 100 µM
CCOC(=O)c1c(NS(=O)(=O)c2ccc(Br)cc2)sc2c1CCCC2 | 26.5 µM | 32.1 µM | 21.1 µM | 19 µM | 35.5 µM | 10.1 µM | > 100 µM | 18.2 µM | 9.92 µM | 27.9 µM | > 62.9 µM | 16.1 µM | 49.1 µM | 9.91 µM | 3.72 µM | 18.3 µM | 15.3 µM | – | 31.9 µM | 47.5 µM
COC(=O)/C=C1/OC(c2ccc(Br)cc2)=C(Br)C1=O | 33.6 µM | 4.12 µM | 7.75 µM | 14.2 µM | 28.1 µM | 11.3 µM | 6.58 µM | 22.4 µM | 10.8 µM | 21.5 µM | 25.5 µM | 8.17 µM | 20.9 µM | 34.7 µM | 32.9 µM | 12.5 µM | 10.5 µM | – | 17.6 µM | 27.5 µM
